± gives the standard deviation of the averaged measurements.
Tests used:
Assay in all cases: level (log10 ratio to DMSO vehicle control); higher = higher biomarker level / cell amount than vehicle control
Settings in all cases: in DMSO
[1] = compound: C=CC(=O)OCC(F)(F)C(F)(F)C(F)(F)C(F)(F)C(F)(F)C(F)(F)C(F)(F)C(F)F [1H,1H,9H-Perfluorononyl acrylate]
Protocol: (§1)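 BioMAP Diversity Plus panel of 12 human primary cell co-culture systems (3C, 4H, LPS, SAg, BT, BF4T, BE3C, CASM3C, HDF3CGF, KF3CT, MyoF, Mphg). Compounds were added 1 h before stimulation and left for 24 h (MyoF 48 h; BT 72 h for soluble read-outs or 6 d for IgG). Biomarkers were read by ELISA, cytotoxicity by SRB, PBMC viability and proliferation by Alamar Blue. Each well value was divided by the mean of 8 DMSO control wells on the same plate and log10 transformed; duplicate blinded samples were tested at 4 concentrations.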

[2] = compound: Cc1ccc(S(=O)(=O)OCC(F)(F)C(F)(F)C(F)(F)C(F)(F)C(F)(F)C(F)F)cc1 [1H,1H,7H-Perfluoroheptyl 4-methylbenzenesulfonate]
Protocol: as §1

[3] = compound: FC(F)(F)COC(OCC(F)(F)F)OCC(F)(F)F [tris(Trifluoroethoxy)methane]
Protocol: as §1

[4] = compound: O=C(CC(=O)C(F)(F)C(F)(F)C(F)(F)F)c1cccs1 [(Perfluorobutyryl)-2-thenoylmethane]
Protocol: as §1

Tetrafluorosuccinic acid = compound: O=C(O)C(F)(F)C(F)(F)C(=O)O [Tetrafluorosuccinic acid]
Protocol: as §1

[5] = compound: OCC(F)(F)C(F)(F)C(F)(F)C(F)(F)C(F)(F)C(F)(F)C(F)(F)C(F)(F)C(F)(F)C(F)(F)C(F)(F)F [11:1 Fluorotelomer alcohol]
Protocol: as §1

[6] = compound: OCC(F)(F)C(F)(F)C(F)(F)C(F)(F)C(F)(F)C(F)(F)F [6:1 Fluorotelomer alcohol]
Protocol: as §1

| Test System | level (log10) ([1]; 6700 nM) | level (log10) ([1]; 20000 nM) | level (log10) ([1]; 60000 nM) | level (log10) ([2]; 6700 nM) | level (log10) ([2]; 20000 nM) | level (log10) ([2]; 60000 nM) | level (log10) ([3]; 6700 nM) | level (log10) ([3]; 20000 nM) | level (log10) ([3]; 60000 nM) | level (log10) ([4]; 6700 nM) | level (log10) ([4]; 20000 nM) | level (log10) (Tetrafluorosuccinic acid; 6700 nM) | level (log10) (Tetrafluorosuccinic acid; 20000 nM) | level (log10) (Tetrafluorosuccinic acid; 60000 nM) | level (log10) ([5]; 1100 nM) | level (log10) ([5]; 3300 nM) | level (log10) ([5]; 10000 nM) | level (log10) ([6]; 6700 nM) | level (log10) ([6]; 20000 nM) | level (log10) ([6]; 60000 nM) |
| --- | --- | --- | --- | --- | --- | --- | --- | --- | --- | --- | --- | --- | --- | --- | --- | --- | --- | --- | --- | --- |
| BF4T:CD54/ICAM-1 | -0.0365 ± 0.033 | -0.0385 ± 0.049 | -0.0455 ± 0.019 | -0.0055 ± 0.018 | -0.01 ± 0.0028 | -0.021 ± 0.0085 | -0.007 ± 0.017 | 0 ± 0.038 | -0.017 ± 0.017 | 0.011 ± 0.017 | -0.0745 ± 0.00071 | -0.0145 ± 0.013 | -0.018 ± 0.0042 | -0.0295 ± 0.0021 | -0.0125 ± 0.005 | -0.015 ± 0.018 | -0.0015 ± 0.00071 | -0.0065 ± 0.023 | -0.01 ± 0.016 | -0.005 ± 0.018 |
| SAg:CD40 | -0.027 ± 0.021 | -0.0725 ± 0.023 | -0.133 ± 0.026 | -0.0125 ± 0.0078 | 0.001 ± 0.031 | -0.0135 ± 0.011 | 0.0005 ± 0.026 | -0.0185 ± 0.011 | -0.0245 ± 0.0064 | -0.27 ± 0.11 | -0.412 ± 0.093 | 0 ± 0.023 | 0.001 ± 0.0014 | -0.018 ± 0.0071 | -0.038 ± 0.024 | -0.068 | -0.0685 ± 0.042 | -0.02 ± 0.023 | -0.0075 ± 0.0021 | -0.005 ± 0.033 |
| BT:sIL-2 | 0.118 ± 0.042 | -0.0285 ± 0.11 | -0.514 ± 0.61 | 0.0615 ± 0.0021 | 0.0305 ± 0.042 | -0.0025 ± 0.14 | -0.0155 ± 0.016 | 0.0015 ± 0.021 | 0.029 ± 0.025 | 0.0385 ± 0.067 | -0.001 ± 0.0014 | -0.0195 ± 0.035 | 0.03 ± 0.083 | 0.0825 ± 0.13 | 0.108 ± 0.058 | 0.0255 ± 0.083 | -0.02 ± 0.073 | 0.0235 ± 0.028 | -0.012 ± 0.075 | -0.289 ± 0.081 |
| BF4T:Keratin 8/18 | -0.022 ± 0.013 | -0.007 ± 0.013 | -0.0385 ± 0.037 | 0.0085 ± 0.039 | 0.005 ± 0.028 | -0.0285 ± 0.028 | 0.0035 ± 0.032 | 0.0035 ± 0.021 | 0.01 ± 0.024 | -0.0735 ± 0.0035 | -0.127 ± 0.016 | 0.013 ± 0.018 | -0.0115 ± 0.037 | -0.0165 ± 0.03 | 0.0025 ± 0.026 | -0.009 ± 0.03 | -0.0075 ± 0.025 | -0.0085 ± 0.0092 | -0.0045 ± 0.023 | 0.03 ± 0.05 |
| BE3C:CD54/ICAM-1 | -0.01 ± 0.0042 | -0.0095 ± 0.013 | -0.0165 ± 0.011 | 0.014 ± 0.0057 | -0.023 ± 0.02 | -0.012 ± 0.0014 | 0.016 ± 0.027 | 0.006 ± 0.0099 | 0.0075 ± 0.0092 | -0.0075 ± 0.0064 | -0.102 ± 0.0064 | 0.0015 ± 0.025 | 0.0065 ± 0.00071 | 0.0115 ± 0.00071 | -0.0245 ± 0.00071 | -0.054 ± 0.0099 | -0.025 ± 0.0028 | 0.0055 ± 0.019 | -0.013 ± 0.016 | 0.0065 ± 0.0021 |
| BE3C:CXCL8/IL-8 | -0.0165 ± 0.016 | -0.012 ± 0.013 | -0.004 ± 0.024 | -0.0345 ± 0.042 | -0.12 ± 0.059 | -0.126 ± 0.028 | 0.018 ± 0.051 | 0.0155 ± 0.04 | 0.0505 ± 0.013 | -0.0905 ± 0.013 | -0.01 ± 0.023 | 0.0325 ± 0.052 | 0.0315 ± 0.071 | 0.0525 ± 0.0064 | -0.086 ± 0.011 | -0.158 ± 0.055 | -0.0975 ± 0.042 | 0.004 ± 0.017 | -0.0125 ± 0.042 | -0.0075 ± 0.0064 |
| LPS:SRB | -0.006 ± 0.0028 | 0.003 ± 0.0042 | -0.0055 ± 0.011 | 0.006 ± 0.0099 | -0.0075 ± 0.00071 | -0.031 ± 0.0042 | -0.0065 ± 0.0021 | -0.0015 ± 0.011 | -0.0015 ± 0.0078 | -0.015 ± 0.014 | -0.117 ± 0.019 | -0.0055 ± 0.013 | -0.008 ± 0.0014 | -0.017 ± 0.0042 | -0.029 ± 0.0099 | -0.0455 ± 0.0021 | -0.036 ± 0.0014 | -0.005 ± 0.0014 | -0.0105 ± 0.005 | -0.0005 ± 0.0092 |
| BT:sTNF-alpha | -0.111 ± 0.039 | -0.281 ± 0.065 | -0.827 ± 0.71 | 0.102 ± 0.067 | 0.0055 ± 0.084 | 0.084 ± 0.069 | 0.017 ± 0.11 | -0.0365 ± 0.033 | 0.0085 ± 0.043 | -0.0385 ± 0.063 | -0.354 ± 0.13 | -0.0875 ± 0.14 | -0.076 ± 0.13 | -0.0795 ± 0.054 | -0.057 ± 0.031 | -0.127 ± 0.0064 | -0.0825 ± 0.079 | 0.0265 ± 0.084 | -0.0265 ± 0.033 | -0.33 ± 0.0042 |
| SAg:CXCL8/IL-8 | -0.068 ± 0.0028 | -0.0845 ± 0.026 | -0.0975 ± 0.14 | 0.005 ± 0.0014 | 0.0025 ± 0.0064 | 0.0265 ± 0.033 | 0.002 ± 0.023 | 0.0085 ± 0.0021 | 0.0135 ± 0.00071 | -0.169 ± 0.058 | -0.177 ± 0.0085 | -0.0345 ± 0.039 | -0.044 ± 0.021 | -0.006 ± 0.064 | 0.0365 ± 0.042 | -0.0005 ± 0.0035 | -0.121 ± 0.28 | -0.035 ± 0.048 | -0.0425 ± 0.025 | -0.013 ± 0.069 |
| SAg:PBMC Cytotoxicity | -0.015 ± 0.0057 | -0.0795 ± 0.0092 | -0.194 ± 0.1 | 0.0275 ± 0.0092 | 0.0285 ± 0.0092 | 0.017 ± 0.02 | -0.0115 ± 0.0078 | 0.01 ± 0.017 | 0.0135 ± 0.022 | -0.0295 ± 0.019 | -0.058 ± 0.03 | -0.002 ± 0.048 | 0.0115 ± 0.013 | 0.039 ± 0.013 | -0.233 ± 0.016 | -0.266 ± 0.02 | -0.268 ± 0.076 | -0.014 ± 0.013 | -0.014 ± 0.0099 | -0.0295 ± 0.073 |
| BE3C:CXCL10/IP-10 | -0.01 ± 0.016 | 0 ± 0.0014 | -0.005 ± 0.0099 | -0.0095 ± 0.0092 | -0.033 ± 0.016 | -0.015 ± 0.0014 | -0.001 ± 0.0085 | -0.0035 ± 0.018 | 0.0095 ± 0.0021 | -0.0615 ± 0.00071 | -0.578 ± 0.018 | -0.007 ± 0.0028 | -0.009 ± 0.0057 | -0.0125 ± 0.0035 | -0.0345 ± 0.035 | -0.0745 ± 0.03 | -0.043 ± 0.0071 | 0.0355 ± 0.005 | 0.028 ± 0.011 | 0.0075 ± 0.025 |
| 3C:HLA-DR | -0.002 ± 0.0085 | 0.0155 ± 0.0021 | -0.0055 ± 0.005 | 0.0215 ± 0.016 | 0.0165 ± 0.0021 | 0.0085 ± 0.022 | 0.014 ± 0.013 | 0.0065 ± 0.012 | 0.0205 ± 0.0035 | -0.093 ± 0.045 | -0.511 ± 0.026 | 0.0005 ± 0.025 | -0.0075 ± 0.0021 | -0.0045 ± 0.032 | -0.019 ± 0.0042 | -0.034 ± 0.011 | -0.04 ± 0.016 | 0.004 ± 0.011 | -0.003 ± 0.0028 | -0.0095 ± 0.0078 |
| BT:PBMC Cytotoxicity | -0.047 ± 0.0085 | -0.1 ± 0.0085 | -0.287 ± 0.1 | -0.017 ± 0.0057 | 0.008 ± 0.0014 | -0.017 | 0.002 ± 0.033 | 0.005 ± 0.035 | 0.006 ± 0.0057 | 0.0005 ± 0.025 | -0.0515 ± 0.037 | 0.0305 ± 0.012 | 0.026 ± 0.0042 | 0.024 ± 0.014 | -0.073 ± 0.044 | -0.09 ± 0.038 | -0.0775 ± 0.019 | 0.017 ± 0.025 | 0.011 ± 0.037 | -0.082 ± 0.03 |
| BT:sIL-17F | -0.175 ± 0.05 | -0.483 ± 0.2 | -0.84 ± 0.25 | 0.0475 ± 0.13 | -0.037 ± 0.051 | -0.105 ± 0.032 | -0.024 ± 0.031 | -0.0565 ± 0.032 | 0.0095 ± 0.084 | -0.114 ± 0.061 | -0.45 ± 0.048 | 0.0105 ± 0.026 | 0.0175 ± 0.043 | -0.0215 ± 0.033 | 0.308 ± 0.0078 | 0.319 ± 0.096 | 0.33 ± 0.077 | 0.0105 ± 0.0035 | -0.0465 ± 0.025 | -0.388 ± 0.029 |
